Reference: PubChem BioAssay AID328 (DTP/NCI, 2004)
Values joined by “and” are separate entries in the source; they are usually repeats but may differ in a detail not shown here. Equal entries are not always repeated. Toxic doses and inconclusive results are not listed.

System: BDF1 mice, P388 leukemia ip, median survival T/C
Assay: NCI In Vivo Anticancer Drug Screen. Data for tumor model P388 Leukemia (intraperitoneal) in B6D2F1 (BDF1) mice
Conditions: endpoint: median survival time, higher = longer survival
Procedure, shortened: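 In tumour-bearing mice, survival after compound treatment is set against the vehicle group and given as a quotient.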

[1] = dose: 50.0 mg/kg/injection, schedule: Q01DX009 (ip), vehicle: saline with Tween-80
[2] = dose: 100.0 mg/kg/injection, schedule: Q01DX009 (ip), vehicle: Klucel (hydroxypropylcellulose) (HPC)
[3] = dose: 100.0 mg/kg/injection, schedule: Q04DX003 (ip), vehicle: Klucel (hydroxypropylcellulose) (HPC)
[4] = dose: 200.0 mg/kg/injection, schedule: Q04DX003 (ip), vehicle: Klucel (hydroxypropylcellulose) (HPC)
[5] = dose: 400.0 mg/kg/injection, schedule: Q04DX003 (ip), vehicle: Klucel (hydroxypropylcellulose) (HPC)
[6] = dose: 200.0 mg/kg/injection, schedule: Q01DX009 (ip), vehicle: Klucel (hydroxypropylcellulose) (HPC)

**Q.** How did the T/C (dose: 12.5 mg/kg/injection, schedule: Q01DX009 (ip), vehicle: saline with Tween-80) turn out when O=[N+]([O-])c1ccc(S/N=C\c2ccccc2)c([N+](=O)[O-])c1 was run?
**A.** 107 % of control

**Q.** What about the T/C (dose: 25.0 mg/kg/injection, schedule: Q01DX009 (ip), vehicle: saline with Tween-80) of the same molecule?
**A.** 105 % of control

**Q.** And the T/C [1]?
**A.** 105 % of control

**Q.** How did the T/C (dose: 25.0 mg/kg/injection, schedule: Q04DX003 (ip), vehicle: saline with Tween-80) turn out when Cc1cc2ccccc2oc1=O was run?
**A.** 100 % of control

**Q.** What about the T/C (dose: 50.0 mg/kg/injection, schedule: Q04DX003 (ip), vehicle: saline with Tween-80) of the same molecule?
**A.** 100 % of control

**Q.** What about the T/C (dose: 100.0 mg/kg/injection, schedule: Q04DX003 (ip), vehicle: saline with Tween-80) of the same molecule?
**A.** 100 % of control

**Q.** For C[n+]1cccc(NC(=O)c2ccc(NC(=O)c3ccc(C(=O)Nc4ccc(NC(=N)N)cc4)cc3)cc2)c1, which T/C (dose: 3.3 mg/kg/injection, schedule: Q04DX003 (ip), vehicle: saline) is on record?
**A.** 150 % of control

**Q.** What about the T/C (dose: 5.0 mg/kg/injection, schedule: Q04DX003 (ip), vehicle: saline) of the same molecule?
**A.** 159 % of control

**Q.** What about the T/C (dose: 5.56 mg/kg/injection, schedule: Q04DX003 (ip), vehicle: saline) of the same molecule?
**A.** 180 % of control

**Q.** What about the T/C (dose: 7.5 mg/kg/injection, schedule: Q04DX003 (ip), vehicle: saline) of the same molecule?
**A.** 195 % of control

**Q.** What about the T/C (dose: 8.33 mg/kg/injection, schedule: Q04DX003 (ip), vehicle: saline) of the same molecule?
**A.** 235 % of control

**Q.** And the T/C (dose: 12.5 mg/kg/injection, schedule: Q04DX003 (ip), vehicle: saline)?
**A.** 235 % of control

**Q.** What about the T/C (dose: 18.7 mg/kg/injection, schedule: Q04DX003 (ip), vehicle: saline) of the same molecule?
**A.** 155 % of control

**Q.** How did the T/C (dose: 12.5 mg/kg/injection, schedule: Q01DX009 (ip), vehicle: gum acacia) turn out when CC(Oc1ccccc1)C(=O)N=c1scc(-c2ccc(Br)cc2)n1-c1cccc2ccccc12 (configuration not stated) was run?
**A.** 110 % of control

**Q.** What about the T/C (dose: 50.0 mg/kg/injection, schedule: Q01DX009 (ip), vehicle: gum acacia) of the same molecule?
**A.** 118 % of control

**Q.** With CN(C)c1ccc(/C=C/c2ccnc3c(-c4ccccc4)cccc23)cc1 as the molecule, how does the T/C [1] read?
**A.** 89 % of control

**Q.** What about the T/C (dose: 100.0 mg/kg/injection, schedule: Q01DX009 (ip), vehicle: saline with Tween-80) of the same molecule?
**A.** 91 % of control

**Q.** Which T/C [2] does the source give for COc1ccc(P(=S)(S)c2ccc(OC)cc2)cc1 here?
**A.** 100 % of control

**Q.** And the T/C (dose: 300.0 mg/kg/injection, schedule: Q01DX009 (ip), vehicle: Klucel (hydroxypropylcellulose) (HPC))?
**A.** 95 % of control

**Q.** What does the source list for O=S1(=O)CC(O)C(Cl)C1 (configuration not stated)?
**A.** T/C (dose: 100.0 mg/kg/injection, schedule: Q01DX001 (ip), vehicle: saline): 104 % of control; T/C [3]: 100 % of control; T/C (dose: 200.0 mg/kg/injection, schedule: Q01DX001 (ip), vehicle: saline): 100 % of control; T/C [4]: 100 % of control; T/C [5]: 100 % of control

**Q.** What does the source list for O=[N+]([O-])c1cccnc1Cl?
**A.** T/C (dose: 50.0 mg/kg/injection, schedule: Q01DX009 (ip), vehicle: Klucel (hydroxypropylcellulose) (HPC)): 91 % of control; T/C [2]: 100 % of control; T/C [3]: 104 % of control; T/C [6]: 91 % of control; T/C [4]: 100 % of control

**Q.** Which T/C (dose: 25.0 mg/kg/injection, schedule: Q01DX009 (ip), vehicle: water) does the source give for CC(=N\O)/C(C)=N/O.CC(=N\O)/C(C)=N/O.O=C(O)C1CC[N-]CC1.O=C(O)C1CC[N-]CC1.O=C(O)C1CC[N-]CC1.O=C(O)C1CC[N-]CC1.[Cl-].[Cl-].[Cl][Rh][Cl].[Rh+3] here?
**A.** 100 % of control

**Q.** What about the T/C (dose: 50.0 mg/kg/injection, schedule: Q01DX009 (ip), vehicle: water) of the same molecule?
**A.** 94 % of control

**Q.** What about the T/C (dose: 200.0 mg/kg/injection, schedule: Q01DX009 (ip), vehicle: water) of the same molecule?
**A.** 94 % of control

**Q.** And the T/C (dose: 400.0 mg/kg/injection, schedule: Q01DX009 (ip), vehicle: water)?
**A.** 88 % of control

**Q.** What does the source list for O=C(/C=C\c1ccc(O)cc1)c1ccccc1?
**A.** T/C [2]: 105 % of control; T/C [3]: 108 % of control; T/C [6]: 110 % of control; T/C [4]: 100 % of control; T/C (dose: 400.0 mg/kg/injection, schedule: Q01DX009 (ip), vehicle: Klucel (hydroxypropylcellulose) (HPC)): 110 % of control; T/C [5]: 104 % of control

**Q.** With NC(=O)NN=C1COC(c2ccccc2)OC1 (configuration not stated) as the molecule, how does the T/C (dose: 50.0 mg/kg/injection, schedule: Q01DX009 (ip), vehicle: saline) read?
**A.** 110 % of control

**Q.** And the T/C (dose: 100.0 mg/kg/injection, schedule: Q01DX009 (ip), vehicle: saline)?
**A.** 110 % of control

**Q.** And the T/C (dose: 100.0 mg/kg/injection, schedule: Q04DX003 (ip), vehicle: saline)?
**A.** 116 % of control

**Q.** What about the T/C (dose: 200.0 mg/kg/injection, schedule: Q01DX009 (ip), vehicle: saline) of the same molecule?
**A.** 91 % of control

**Q.** And the T/C (dose: 200.0 mg/kg/injection, schedule: Q04DX003 (ip), vehicle: saline)?
**A.** 104 % of control

**Q.** How did the T/C (dose: 100.0 mg/kg/injection, schedule: Q01DX001 (ip), vehicle: Klucel (hydroxypropylcellulose) (HPC)) turn out when Cc1nc(Cl)c2c(n1)Oc1nc(C)nc(Cl)c1C2c1ccc(Cl)cc1 was run?
**A.** 88 % of control and 100 % of control

**Q.** And the T/C (dose: 200.0 mg/kg/injection, schedule: Q01DX001 (ip), vehicle: Klucel (hydroxypropylcellulose) (HPC))?
**A.** 95 % of control

**Q.** And the T/C (dose: 400.0 mg/kg/injection, schedule: Q01DX001 (ip), vehicle: Klucel (hydroxypropylcellulose) (HPC))?
**A.** 88 % of control and 90 % of control
